What was measured:
[1] = system: human bone marrow-derived mesenchymal stem cells (hBMSCs); assay: Cell viability by CCK-8 analysis, hBMSCs; format: cell-based; details: FIG. 1; for influence on cell viability: all the concentrations (50, 100, 200, 400 μM); for cell viability: concentration of 100 μM
Method: (§1) In Example 2, influence of a sialyloligosaccharide on cell viability of stem cells was to be confirmed. Particularly, 3′-sialyllactose, 6′-sialyllactose, and a combination thereof were each treated on the subcultured stem cells in a concentration of 0, 50, 100, 200, or 400 μM, and the cell viability per concentration was verified by cell counting kit-8 (CCK-8) analysis. In particular, of hBMSCs, hATMSCs, and hCBMSCs were seeded in a 96-well plate. Then, the stem cells were treated with 3′-sialyllactose (GeneChem), 6′-sialyllactose (GeneChem), and a mixture of 3′-sialyllactose and 6′-sialyllactose in a concentration of 0, 50, 100, 200, or 400 μM and cultured in a DMEM low glucose medium (HyClone) including 1% antibiotics free of fetal bovine serum (T&I). Next, the viabilities of the cultured cells were confirmed by CCK-8 (Dojindo Laboratories, Kumamoto, Japan) analysis.

[2] = system: human adipose tissue-derived mesenchymal stem cells (hATMSCs); assay: Cell viability by CCK-8 analysis, hATMSCs; format: cell-based; details: FIG. 2; for influence on cell viability: all the concentrations (50, 100, 200, 400 μM); for cell viability: concentration of 100 μM
Method: as §1

[3] = system: human cord blood-derived mesenchymal stem cells (hCBMSCs); assay: Cell viability by CCK-8 analysis, hCBMSCs; format: cell-based; details: FIG. 3; for influence on cell viability: all the concentrations (50, 100, 200, 400 μM); for cell viability: concentration of 100 μM
Method: as §1

hBMSCs [4] = assay: Stemness markers OCT4, SOX2, NANOG by qRT-PCR and western blot, hBMSCs; format: cell-based, human; details: 100 μM, compared to stem cells cultured without a sialyllactose, FIG. 4
Excerpt: (§2) In Example 1, human bone marrow-derived mesenchymal stem cells (hBMSCs), human adipose tissue-derived mesenchymal stem cells (hATMSCs), human cord blood-derived mesenchymal stem cells (hCBMSCs), and induced pluripotent stem cells-derived hepatic organoid were used in this experiment. Dulbecco's Modified Eagle's Mediums (DMEM Low Glucose, available from HyClone in Logan, Utah, USA) including 10% fetal bovine serum (available from T&I in Gangwon, Korea), 1% antibiotics (penicillin/streptomycin, available from Gibco in Grand Island, NY, USA) were used as culture mediums of hBMSCs, hATMSCs, and hCBMSCs. After treating 3′-sialyllactose (available from GeneChem), 6′-sialyllactose (available from GeneChem), and a mixture of 3′-sialyllactose and 6′-sialyllactose, each in an amount of 100 μM, the culturing solutions were replaced every 3 days. The negative control was performed in the same manner after adding triple distilled water into the culturing solution. Also, a Hepatocyte Culture Medium (available from Lonza) including an endothelial cell growth medium-2 (available from Lonza), 2.5% FBS, 100 nM dexamethasone (available from Sigma-Aldrich), 20 ng/ml OSM (available from R&D system), and 10 ng/ml HGF (available from PeproTech) was used as the culturing solution of hepatic organoid, and the culturing solution was replaced every 3 days.
(§3) In Example 3, influence of a sialyloligosaccharide on stemness of stem cells was to be confirmed. Particularly, after treating mesenchymal stem cells with each of 3′-sialyllactose, 6′-sialyllactose, and a combination thereof, mRNAs of OCT4, SOX2, and NANOG, which are stem cell markers of the mesenchymal stem cells, and changes in expression at protein levels were each measured by quantitative real-time reverse transcription-polymerase chain reaction (qRT-PCR) and western blot. In particular, total RNAs were isolated from the cells collected after culturing the cells in the same manner as in Example 1, and change in mRNA expression of the isolated total RNAs was confirmed by qRT-PCR using OCT4 primers available from Bioneer (Daejeon, Korea), SOX2 primers available from Bioneer (P200205), and NANOG primers.

hATMSCs = assay: Stemness markers OCT4, SOX2, NANOG by qRT-PCR and western blot, hATMSCs; format: cell-based, human; details: 100 μM, compared to stem cells cultured without a sialyllactose, FIG. 5
Excerpt: as §2, §3

hCBMSCs = assay: Stemness markers OCT4, SOX2, NANOG by qRT-PCR and western blot, hCBMSCs; format: cell-based, human; details: 100 μM, compared to stem cells cultured without a sialyllactose, FIG. 6
Excerpt: as §2, §3

[5] = system: induced pluripotent stem cells-derived hepatic organoids; assay: Cell viability of hepatic organoids by CCK analysis; format: cell-based; details: concentrations of 0.1, 1, 10, and 100 μM for 6 days, 7th day, FIG. 10
Excerpt: (§4) In Example 1, human bone marrow-derived mesenchymal stem cells (hBMSCs), human adipose tissue-derived mesenchymal stem cells (hATMSCs), human cord blood-derived mesenchymal stem cells (hCBMSCs), and induced pluripotent stem cells-derived hepatic organoid were used in this experiment. Dulbecco's Modified Eagle's Mediums (DMEM Low Glucose, available from HyClone in Logan, Utah, USA) including 10% fetal bovine serum (available from T&I in Gangwon, Korea), 1% antibiotics (penicillin/streptomycin, available from Gibco in Grand Island, NY, USA) were used as culture mediums of hBMSCs, hATMSCs, and hCBMSCs. After treating 3′-sialyllactose (available from GeneChem), 6′-sialyllactose (available from GeneChem), and a mixture of 3′-sialyllactose and 6′-sialyllactose, each in an amount of 100 μM, the culturing solutions were replaced every 3 days. The negative control was performed in the same manner after adding triple distilled water into the culturing solution. Also, a Hepatocyte Culture Medium (available from Lonza) including an endothelial cell growth medium-2 (available from Lonza), 2.5% FBS, 100 nM dexamethasone (available from Sigma-Aldrich), 20 ng/ml OSM (available from R&D system), and 10 ng/ml HGF (available from PeproTech) was used as the culturing solution of hepatic organoid, and the culturing solution was replaced every 3 days. […]

[6] = system: induced pluripotent stem cells-derived hepatic organoids; assay: Metabolic maturity of hepatic organoids, mRNA expression ratios by qRT-PCR; format: cell-based; details: 6 days; for ratios of ALB/AFP: FIG. 12
Excerpt: as §2
In Example 8, influence of a sialyloligosaccharide on maturity of induced pluripotent stem cells-derived hepatic organoids was to be confirmed. Particularly, after subculturing the hepatic organoids, the organoids were stabilized in a hepatic medium (HM) for a day and treated with 3′-sialyllactose and 6′-sialyllactose in concentrations of 0, 0.1, 1, 10, and 100 μM for 6 days, and then total RNAs were isolated from the hepatic organoids on the 7th day. The changes in expressions at mRNA level of CYP3A4, CYP2A7, ALB, and AFP, which are markers of metabolic maturity, were each measured by qRT-PCR, and the expression ratios were compared to confirm the metabolic maturity.

hBMSCs [7] = assay: Cell senescence factors p16 and p53 by qRT-PCR and Western Blot after subculturing; format: cell-based, human; details: hBMSCs subcultured, 100 μM, versus without treatment, FIG. 7
Excerpt: as §4, with “solution.” for “solution. Also, a Hepatocyte Culture Medium (available from Lonza) including an endothelial cell growth medium-2 (available from Lonza), 2.5% FBS, 100 nM dexamethasone (available from Sigma-Aldrich), 20 ng/ml OSM (available from R&D system), and 10 ng/ml HGF (available from PeproTech) was used as the culturing solution of hepatic organoid, and the culturing solution was replaced every 3 days.”
In Example 4, influence of a sialyloligosaccharide on senescence of stem cells was to be confirmed. Particularly, after treating the hBMSC stem cells with 3′-sialyllactose, changes in expression at mRNA and protein levels of p16 and p53, which are cell senescence factors after subculturing were each measured by qRT-PCT and Western Blot. […]

hBMSCs [8] = assay: Senescence-associated beta-galactosidase (SA-β-gal) staining; format: cell-based, human; details: hBMSCs of 10 passages, 100 μM, versus without treatment, FIG. 7C
Method: Also, in order to confirm a degree of senescence of the stem cells after being treated with 3′-sialyllactose (GeneChem), senescence-associated beta-galactosidase staining was performed on hBMSCs of 10 passages, treated with 100 μM of 3′-sialyllactose. In particular, after fixing the cells in formalin, the resultant washed with PBS, and 1 mg/mL of a β-gal staining solution X-Gal, 40 mM of a citric acid-sodium phosphate buffer solution, 150 mM of NaCl, 2 mM of MgCl2, 5 mM of potassium ferrocyanide, and 5 mM of potassium ferricyanide (pH 6.0, available from Sigma-Aldrich, St. Louis, USA) were add to the resultant and reacted at 37° C. Then, degrees of senescence activity of the aged cells (blue, positive) and cells not showing activity of senescence (negative) were confirmed using Eclipse TS100 (available from Nikon USA, Melville, N.Y., USA).

hBMSCs [9] = assay: Proliferation genes CCNA2 and CDK2 expression by qRT-PCR; format: cell-based, human; details: hBMSCs having low proliferation ability, 100 μM, mRNA, FIG. 8
Excerpt: as §4

hBMSCs [10] = assay: Cell viability per subculturing passage by CCK-8; format: cell-based, human; details: hBMSCs subcultured for 4, 7, 10, and 12 passages, 100 μM, FIG. 9
Method: In Example 6, influence of a sialyloligosaccharide on viability of stem cells according to cell subculturing passages was to be confirmed. Particularly, hBMSCs subcultured for 4, 7, 10, and 12 passages were treated with 3′-sialyllactose in a concentration of 100 μM, and the cell viability was confirmed by cell counting kit-8 assay (CCK-8) analysis. In particular, the hBMSCs were seeded in a 96-well plate. Then, the stem cells were treated with 3′-sialyllactose (GeneChem) in a concentration of 100 μM and cultured in a DMEM low glucose medium (HyClone) including 1% antibiotics free of fetal bovine serum (T&I). Viabilities of the cultured cells were confirmed by the CCK-8 analysis.

Row | SMILES | influence on cell viability [1] | cell viability [1] | influence on cell viability [2] | cell viability [2] | influence on cell viability [3] | cell viability [3] | expression at mRNA and protein levels of NANOG (hBMSCs [4]) | expression at mRNA and protein levels of OCT4 (hBMSCs [4]) | expression at mRNA and protein levels of SOX2 (hBMSCs [4]) | expression at mRNA and protein levels of NANOG (hATMSCs) | expression at mRNA and protein levels of OCT4 (hATMSCs) | expression at mRNA and protein levels of SOX2 (hATMSCs) | expression at mRNA and protein levels of NANOG (hCBMSCs) | expression at mRNA and protein levels of OCT4 (hCBMSCs) | expression at mRNA and protein levels of SOX2 (hCBMSCs) | cell viability of hepatic organoids [5] | other results
1 | CC(=O)N[C@H]1[C@H]([C@H](O)[C@H](O)CO)O[C@@](OC[C@H]2O[C@@H](O[C@H]3[C@H](O)[C@@H](O)[C@H](O)O[C@@H]3CO)[C@H](O)[C@@H](O)[C@H]2O)(C(=O)O)C[C@@H]1O [6′-sialyllactose] | did not negatively influence the cell viability | increased significantly | did not negatively influence the cell viability | increased significantly | did not negatively influence the cell viability | increased significantly | significantly increased | significantly increased | significantly increased | significantly increased | significantly increased | significantly increased | significantly increased | significantly increased | significantly increased | significantly increased | ratios of ALB/AFP ([6]; concentrations of 0.1 and 100 μM): significantly increased
2 | CC(=O)N[C@H]1[C@H]([C@H](O)[C@H](O)CO)O[C@@](O[C@H]2[C@@H](O)[C@@H](CO)O[C@@H](O[C@H]3[C@H](O)[C@@H](O)C(O)O[C@@H]3CO)[C@@H]2O)(C(=O)O)C[C@@H]1O (some centres unmarked) [3′-sialyllactose] | did not negatively influence the cell viability | increased significantly | did not negatively influence the cell viability | increased significantly | did not negatively influence the cell viability | increased significantly | significantly increased | significantly increased | significantly increased | significantly increased | significantly increased | significantly increased | significantly increased | significantly increased | significantly increased | significantly increased | expression at mRNA and protein levels of p16 (hBMSCs [7]): very low expression; expression at mRNA and protein levels of p53 (hBMSCs [7]): very low expression; SA-β-gal activity (hBMSCs [8]): low SA-β-gal activity; expression of CCNA2 (hBMSCs [9]): significantly increased; expression of CDK2 (hBMSCs [9]): significantly increased; cell viability (hBMSCs [10]): significantly increased; ratios of ALB/AFP ([6]; concentrations of 1, 10, and 100 μM): significantly increased; ratios of CYP3A4/CYP3A7 ([6]; concentrations of 1 and 10 μM, FIG. 11): significantly increased
